What was measured:
Botrytis cinerea = assay: Example O: in vivo protective test on Botrytis cinerea (beans); settings: 100 ppm of active ingredient, lesion size 2 days after inoculation
Method: In Vivo Protective Test on Botrytis cinerea (Beans)
Solvent: 24.5 parts by weight of acetone • 24.5 parts by weight of N,N-dimethylacetamide
Emulsifier: 1 part by weight of alkylaryl polyglycol ether
To produce a suitable preparation of active compound, 1 part by weight of active compound is mixed with the stated amounts of solvent and emulsifier, and the concentrate is diluted with water to the desired concentration.
To test for preventive activity, young plants are sprayed with the preparation of active compound. After the spray coating has dried on, 2 small pieces of agar covered with growth of Botrytis cinerea are placed on each leaf. The inoculated plants are placed in a darkened chamber at 20° C. and a relative atmospheric humidity of 100%.
2 days after the inoculation, the size of the lesions on the leaves is evaluated. 0% means an efficacy which corresponds to that of the untreated control, while an efficacy of 100% means that no disease is observed.

Alternaria solani = assay: Example C: in vivo preventive test on Alternaria solani (tomato); settings: 500 ppm of active ingredient, evaluated 7 days after inoculation
Outline: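 Young tomato plants sprayed preventively with compound formulated in DMF/emulsifier and diluted with water, then inoculated one day later with Alternaria solani spores. Plants were held one day at about 22° C, 100% humidity, then at about 20° C, 96% humidity.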

| Structure (SMILES) | Efficacy (Botrytis cinerea) | Efficacy (Alternaria solani) |
| --- | --- | --- |
| Cn1nc(C(F)F)c(C(=O)N(CC2CC3CCC2C3)C2CC2)c1F (stereo not shown) [Example 71] | 97% | 100% |
| CC(C1CC2CCC1C2)N(C(=O)c1c(C(F)F)nn(C)c1F)C1CC1 (stereo not shown) [Example 93] | 100% | 95% |
